Test results: US20020035097A1, “Method of preventing and treating chemotherapy-induced alopecia” (priority 1991, published 2002)

Assays:
Format in all cases: in vivo, rat
[1] = test system: VP-16-induced alopecia; experiment: VP-16 (Etoposide)-induced alopecia in young rats
Protocol: Twelve 7 day old rats were randomized in two groups. Group I was treated daily with buffer 0.1 ml s.c. for four days. The second Group was treated daily with Vitamin D3 50 μg s.c. over head for four days. After stopping the buffer or Vitamin D3 treatment, all rats received 1.5 mg/kg i.p. of VP-16 (Etoposide) daily for three days.
(§1) 1,25-Dihydroxyvitamin D3 was dissolved in absolute ethanol and applied topically with an applicator. Control animals were similarly treated with the same amount of ethanol. Animals were then kept individually separated for a period of three hours following which the treated area was carefully washed with soap and water and dried. Treatment was given daily beginning on day 5 after birth and ending on day 10.
All chemotherapies were given I.P. and started at 11 days of age. CTX, 35 mg/kg, was given for one day only. VP-16, 1.5 mg/kg, was given for three days. For CTX and ADM combination, CTX, 25 mg/kg was given for one day and ADM, 2.5 mg/kg, for three days. At these doses neither CTX nor ADM alone will produce alopecia. Alopecia was recorded on the tenth day from beginning chemotherapy.
(§2) A total of 4 experiments were carried out. In the first experiment, protection from Cytoxan-induced alopecia was examined. The experimental group was pretreated with 0.2 μg of 1,25-dihydroxyvitamin D3 in 0.15 ml of absolute ethanol applied topically over the head and neck and the control group received 0.15 ml of alcohol. All 10 rats in the control group became totally alopecic. […] The second experiment was carried out under similar conditions to examine protection from VP-16-induced alopecia. All 10 rats in the control group developed total body alopecia. […] The third experiment was designed to examine protection from alopecia induced by Cytoxan-Adriamycin combination. There were 11 rats in each group. Six rats in the control group developed alopecia over the head and neck and 5 rats developed total body alopecia. […] In the fourth experiment, protection from VP-16-induced alopecia was similarly examined except that the dose of 1,25-dihydroxyvitamin D3 was reduced to 0.1 μg in 0.1 ml absolute ethanol applied topically over the head area only. All 10 rats in the control group became completely alopecic.
RO 23-7553 (1,25 dihydroxy-16-ene-23-yne-cholecalciferol) was dissolved in absolute ethanol and applied topically with an applicator. Control animals were similarly treated with the same amount of ethanol. Animals were then kept individually separated for a period of three hours following which the treated area was carefully washed with soap and water and dried. Treatment was given daily beginning on day 9 after birth and ending on day 14.
On day 15 all animals received VP-16, 1.5 mg/kg i.p., for three days. Alopecia was recorded on day 25.
Thirteen rats were randomized in two groups. Experimental group, 7 rats; control group, 6 rats. The experimental group was pretreated with 1 μg of RO 23-7553 in 0.2 ml absolute ethanol applied topically over the neck and back and the control group received 0.2 ml of absolute ethanol. All six rats in the control group became totally alopecic over the neck and back.

[2] = test system: Cytoxan/Adriamycin-induced alopecia; experiment: Cytoxan/Adriamycin combination-induced alopecia in young rats
Protocol: Eight 4-day old Sprague Dawley rats were randomized in two groups of 4 rats each. Group I, received EGF […] s.c. on the head daily for 7 days. Group II received buffer injections and served as controls. One day after stopping EGF or buffer injections all rats received Cytoxan 25 mg/kg i.p.×1 day and Adriamycin 2.5 mg/kg i.p.×3 days. […] (FIG. 5).
as §1
All chemotherapies were given I.P. and started at 11 days of age. CTX, 35 mg/kg, was given for one day only. VP-16, 1.5 mg/kg, was given for three days. For CTX and ADM combination, CTX, 25 mg/kg was given for one day and ADM, 2.5 mg/kg, for three days. […] Alopecia was recorded on the tenth day from beginning chemotherapy.
as §2, with “alcohol.” for “alcohol. All 10 rats in the control group became totally alopecic.”, “VP-16-induced” for “VP-16-induced alopecia. All 10 rats in the control group developed total body”, “group.” for “group. Six rats in the control group developed alopecia over the head and neck and 5 rats developed total body alopecia.”, “only.” for “only. All 10 rats in the control group became completely alopecic.”

[3] = test system: Cytoxan-induced alopecia; experiment: Cytoxan-induced alopecia in young rats; settings: 50 μg daily i.p. or s.c. for 4 days prior to chemotherapy; Cytoxan 32.5 mg/kg single injection; 7 experiments, 89 animals
[4] = test system: ARA-C-induced alopecia; experiment: ARA-C-induced alopecia in young rats
Protocol: Sprague Dawley rats were purchased from Charles River Laboratories, Wilmington, Mass. Cytosar-U (ARA-C) was from the Upjohn Company, Kalamazoo, Mich. Receptor grade EGF from mouse submaxillary glands, human recombinant EGF, dimethyl sulfoxide (DMSO) and Vitamin D3 were purchased from Sigma Chemical Co., St. Louis, Mo. aFGF was purchased from AMGEN Corp., Thousand Oaks, Calif.
All rats from each experiment were treated with ARA-C 50 mg/kg intraperitoneally (i.p.) daily for 7 days. For subcutaneous (s.c.) injections, EGF and FGF were prepared in PBS 1% BSA. Alopecia was always recorded on day 12 of experiment, and scored as previously described (Hussein et al, Science, 249:1564-1566, 1990; Jimenez et al, FASEB J., 1991).
For topical treatment, murine EGF was prepared as follows: One vial of EGF (100 μg) was dissolved in 0.2 ml of PBS 1% BSA and 0.12 ml of this solution was added to 0.48 of DMSO. Three hours prior to ARA-C injection, 0.1 ml of the EGF-DMSO mixture was applied to each rat over a 1 cm^2 area between the shoulders using a rubber tip applicator. Rats were then kept individually separated for a period of three hours, following which the treated area was carefully washed with soap and water and dried. Treatment was continued for 7 days. Control animals were similarly treated using DMSO without EGF.
Two separate experiments were conducted to test the ability of murine EGF to protect from ARA-C-induced alopecia. In Experiment I, twenty-two 7-day old rats were randomized in two groups of eleven rats each. In addition to ARA-C, Group I received 2 μg of mouse EGF s.c. in the back between the two hind legs 3 hours prior to ARA-C injections daily for 7 days. Group II, received buffer solution similarly and served as control. Ten of eleven rats in Group II developed virtually total body alopecia and one rat developed more than 50% hair loss. In contrast, in Group I, 5 rats had no detectable hair loss and 6 rats had mild hair loss (Table I, Experiment I (FIG. 1)). In Experiment II, twelve 7-day old rats were randomized in two groups of 6 rats each. In addition to ARA-C, Group I received mouse EGF 1 μg s.c. daily for 7 days. Group II received buffer s.c. All 6 rats in Group II developed moderately severe to severe alopecia, whereas in Group I, one rat had no detectable hair loss and 5 rats developed only minimal hair loss (Table I, Experiment II).
For the next experiment, rHu-EGF was used. Twelve 7-day old rats were randomized in two groups of six rats each. In addition to ARA-C, Group I received rHu-EGF 2 μg s.c. in the flank area daily for 7 days. Group II received buffer s.c. All 6 rats in Group II developed total body alopecia, whereas in Group I none of the rats had total body alopecia, one rat had no detectable hair loss, four rats had mild alopecia and one rat had moderate alopecia (Table I, Experiment III, (FIG. 2)).
In the next experiment, twelve 7-day old rats were randomized in two groups of six rats each. Group I, in addition to ARA-C, received murine-EGF 10 μg in DMSO daily×7 days rubbed topically with a cotton tip applicator between the shoulder blades over an area of 1 cm^2. Group II received control solution topically. In Group II, all six rats developed complete body alopecia.
Fourteen 7-day old rats were randomized in two groups. All rats received ARA-C 50 mg/kg/day for seven days. In addition, Group I received aFGF 2 μg s.c. on back of head daily for seven days. Group II received buffer injections and served as controls. Alopecia was recorded on day 12 of experiment. All rats in Group II developed complete body alopecia.

[5] = 2μ s.c. on the head daily for 7 days, then Cytoxan 25 mg/kg i.p. × 1 day and Adriamycin 2.5 mg/kg i.p. × 3 days, 4 rats
[6] = Experiment I, 2 μg s.c. daily × 7 days, 3 hours prior to ARA-C 50 mg/kg i.p. × 7 days, 11 rats, day 12
[7] = Experiment II, 1 μg s.c. daily × 7 days with ARA-C 50 mg/kg i.p. × 7 days, 6 rats, day 12
[8] = Experiment III, 2 μg s.c. in flank daily × 7 days with ARA-C 50 mg/kg i.p. × 7 days, 6 rats, day 12
[9] = Experiment III, 2 μg s.c. in flank daily × 7 days with ARA-C 50 mg/kg i.p. × 7 days, 6 rats, day 12, listed as rHu-ECF

C=C1/C(=C\C=C2/CCC[C@]3(C)C([C@H](C)CC#CC(C)(C)O)=CC[C@@H]23)C[C@@H](O)C[C@@H]1O [RO 23-7553, 1,25 dihydroxy-16-ene-23-yne-cholecalciferol]
Protection from VP-16-induced alopecia ([1]; 1 μg in 0.2 ml absolute ethanol topically over neck and back, day 9 to 14 after birth, VP-16 1.5 mg/kg i.p. for three days from day 15, recorded day 25, 7 rats): all animals in the experimental group were protected

C=C1CC[C@H](O)C/C1=C/C=C1\CCC[C@]2(C)[C@@H]([C@H](C)CCCC(C)C)CC[C@@H]12 [Vitamin D3]
Protection from alopecia ([2]; 50 μg daily i.p. or s.c. for 4 days prior to chemotherapy, Adriamycin 2.5 mg/kg i.p. daily for 3 days plus Cytoxan 25 mg/kg single injection, 6 experiments, 77 animals): excellent protection and Yes*
Protection from alopecia [3]: excellent protection and Yes*
Protection from alopecia ([1]; 50 μg daily i.p. or s.c. for 4 days prior to chemotherapy, VP-16 1.5 mg/kg i.p. daily for 3 days, 2 experiments, 22 animals): excellent protection and Yes*
Protection from VP-16-induced alopecia ([1]; 50 μg s.c. over head daily for four days, then VP-16 1.5 mg/kg i.p. daily for three days): protected
Protection from alopecia ([4]; 50 μg daily i.p. or s.c. for 4 days prior to chemotherapy, ARA-C 50 mg/kg i.p. daily for 7 days, 1 experiment, 8 animals): excellent protection and Yes*

Murine EGF: Receptor grade EGF from mouse submaxillary glands (Sigma) (NSYPGCPSSYDGYCLNGGVCMHIESLDSYTCNCVIGYSGDRCQTRDLRWWELR; Epidermal growth factor; UniProt P01132 977-1029, looked up)
Number of rats with mild alopecia over head and neck [2, 5]: one
Number of rats with minimal alopecia over head and neck [2, 5]: one
Number of rats with no detectable alopecia over head and neck [2, 5]: two
Alopecia after topical treatment ([4]; 10 μg in DMSO daily × 7 days topically between shoulder blades over 1 cm^2, ARA-C 50 mg/kg × 7 days, 6 rats): all rats developed complete body alopecia except where the EGF was applied topically
Number of rats with alopecia 0 (no detectable alopecia) [4, 6]: 5
Number of rats with alopecia 1+ (mild, less than 50% hair loss) [4, 6]: 6
Number of rats with alopecia 2+ (moderately severe, more than 50% hair loss) [4, 6]: 0
Number of rats with alopecia 3+ (total or virtually total, >90% hair loss) [4, 6]: 0
Number of rats with alopecia 0 (no detectable alopecia) [4, 7]: 1
Number of rats with alopecia 1+ (mild, less than 50% hair loss) [4, 7]: 5
Number of rats with alopecia 2+ (moderately severe, more than 50% hair loss) [4, 7]: 0
Number of rats with alopecia 3+ (total or virtually total, >90% hair loss) [4, 7]: 0
Number of rats with alopecia 0 (no detectable alopecia) ([4]; Experiment II, 1 μg s.c. daily × 7 days with ARA-C 50 mg/kg i.p. × 7 days, 6 rats, day 12, listed as mouse EGF): one

aFGF: aFGF, a fibroblast growth factor, purchased from AMGEN Corp.
Protection from ARA-C-induced alopecia ([4]; 2 μg s.c. on back of head daily for seven days, ARA-C 50 mg/kg/day for seven days, day 12): protected locally at the site of injection

rHu-EGF: human recombinant EGF (Sigma)
Number of rats with alopecia 0 (no detectable alopecia) [4, 8]: one
Number of rats with alopecia 1+ (mild, less than 50% hair loss) [4, 8]: four
Number of rats with alopecia 2+ (moderately severe, more than 50% hair loss) [4, 8]: one
Number of rats with alopecia 3+ (total or virtually total, >90% hair loss) [4, 8]: none
Number of rats with alopecia 0 (no detectable alopecia) [4, 9]: 1
Number of rats with alopecia 1+ (mild, less than 50% hair loss) [4, 9]: 4
Number of rats with alopecia 2+ (moderately severe, more than 50% hair loss) [4, 9]: 1
Number of rats with alopecia 3+ (total or virtually total, >90% hair loss) [4, 9]: 0
